Experimental data from US8912227B1, “Bicyclic pyrrole derivatives useful as agonists of GPR120” (Janssen Pharmaceutica NV, priority 2014, dated 2014).
One block for each compound: values may come before it.

Tests used:
Assay type in all cases: cell-based
[1] = molecular target: T1, Human GPR120 short form (Homo sapiens, UniProt Q5NUL3); assay: Human GPR120 calcium flux assay, Procedure Calcium B; settings: HEK-293 cells expressing human GPR120 short form, 4200 cells/well, FLIPR
T1 construct: expressed in transfected cells
T1 sequence (Q5NUL3 1-361): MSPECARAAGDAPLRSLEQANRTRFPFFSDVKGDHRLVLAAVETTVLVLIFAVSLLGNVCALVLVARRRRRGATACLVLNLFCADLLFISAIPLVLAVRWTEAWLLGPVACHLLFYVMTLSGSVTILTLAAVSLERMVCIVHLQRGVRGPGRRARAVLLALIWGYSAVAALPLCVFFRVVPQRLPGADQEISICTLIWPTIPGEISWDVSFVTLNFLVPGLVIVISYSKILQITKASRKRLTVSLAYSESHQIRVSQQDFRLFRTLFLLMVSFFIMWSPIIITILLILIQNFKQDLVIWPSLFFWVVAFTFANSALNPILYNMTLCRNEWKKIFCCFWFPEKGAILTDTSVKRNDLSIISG
Source text: (§1) This in vitro assay serves to assess test compound agonist activity against the short splice variant (SVS with Accession number NM_001195755.1 confirmed by sequencing data) of the GPR120 receptor. The Human Short splice variant #2 (NM_001195755.1) is missing an in-frame coding exon compared to variant 1 (the Human Long splice variant NM_181745.3), resulting in a shorter isoform (GPR120-S) lacking a 16 aa protein segment compared to isoform GPR120-L. The assay platform utilizes HEK-293 cells stably transfected to express the Human GPR120 short form. These cells are first loaded with the Ca^+2 sensitive dye, Fluo-4 NW. Upon stimulation, intracellular released Ca^+2 can bind to the dye and alter its fluorescence intensity. This increase in fluorescence signal, and thus the flux in intracellular [Ca^2+], is detected and quantitated by fluorescence imaging using a FLIPR reader. The effect of the agonist is measured as a function of concentration and used to calculate an EC50 based upon a response curve.
In this procedure 4200 cells/well were employed.
(§2) A Human GPR120 clone (Genbank accession number NM_001195755.1) was placed into the pcDNA3.1 mammalian expression vector carrying the neomycin resistance gene. A stable mammalian cell was generated by placing the above clone into a HEK293 background. Clonal cells responding to long chain fatty acids had expression levels of GPR120 confirmed by RT-qPCR. Human HEK-GPR120 cells were cultured in Dulbecco's Modified Eagle's Medium (DMEM)/F12 medium supplemented with 10% fetal bovine serum (FBS), 1% L-Glutamine and 1% penicillin/streptomycin and 0.5 mg/ml G-418. Cells were split 2 times a week to keep the cells in the log-phase growth.
(§3) In preparation for the assay, HEK cells stably transfected with Human GPR120 (2.5K cells per well in 25 uL growth medium) were seeded into 384-well plates and then incubated overnight (37° C., 5% CO2). The next day, the media was changed to 20 μl assay buffer and the cell starved for 1 h at 37° C. The dye loading solution (2× dye) was prepared using 10 ml assay buffer, 100 μl of 250 mM probenecid, 1 bottle of Component A, and 20 μl of dye in DMSO. Twenty μl of the 2× dye loading buffer was then added to each well. The plates were incubated at 37° C. for 30 min, then at room temperature for an additional 15 minutes, before performing the assay on FLIPR.
(§4) Test compounds were prepared in assay buffer (2 μl of test compound+198 μl assay buffer, final DMSO in assay plate is 0.2%) at the desired concentration, more particularly at 100 μM, 50 μM, 25 μM, 12.5 μM, 6.25 μM, 3.125 μM, 1.562 μM, 0.781 μM, 0.391 μM, 0.195 μM, 0.098 μM, 0.049 μM, 0.024 μM and 0.012 μM.
(§5) The assay was performed on a FLIPR plate reader using the following parameters. Baseline was read for 10 seconds at 1 sec intervals. The program was set to transfer 10 μL of ligand from compound plate to cell plate after baseline reading. Aspiration was executed at: 10 μl/sec speed, 4.6 μl height; Dispensing was executed at: 30 μl/sec speed, 45 μl height. After compound addition, each well was read for 300 sec, with measurements collected at 1 sec intervals.
(§6) The kinetic data from the FLIPR was based upon a 5 minute window for data collection. The fluorescence of each sample well was used for individual calculations of a normalized RFU value, which was defined as maximum response minus the minimum response. The normalized fluorescence reading (RFU) was calculated as follows: RFU=Fmax−Fmin
(§7) The data were fitted to a sigmoidal dose-response curve with a variable Hill slope (<2) using nonlinear regression with GraphPad Prism 5.0 to calculate the EC50 values. The Fitting Equation was: Y=Bottom+(Top−Bottom)/(1+10^((LogEC50−X)*HillSlope)), where X is the log of the concentration and Y is the response.

[2] = molecular target: T1, Human GPR120 short form; assay: Human GPR120 calcium flux assay, Procedure Calcium A; settings: HEK-293 cells expressing human GPR120 short form, 2500 cells/well, FLIPR
Source text: as §1
In this procedure 2500 cells/well were employed.
as §2, §3, §4, §5, §6, §7

[3] = molecular target: T2, long form of human GPR120 (Homo sapiens, UniProt Q5NUL3); assay: Human GPR120 DiscoveRx PathHunter β-Arrestin assay, Procedure β-arrestin A; settings: PathHunter CHO-K1 GPR120 β-Arrestin cell line, 3000 cells per well
T2 construct: host or cells: PathHunter CHO-K1 GPR120 β-Arrestin Cell Line
Source text: The binding of an agonist (medium/long chain fatty acids or small molecule agonists) to the G-protein-coupled receptor GPR120 activates phospholipase C, leading to release of intracellular Ca^+2 through the generation of inositol 1,4,5-trisphosphate (InsP3 or IP3). GPR120 activation can also trigger intracellular signaling via recruitment of β-Arrestin. In the present method, agonist-induced activation of the human GPR120 receptor is monitored through the use of PathHunter CHO-K1 GPR120 β-Arrestin Cell Line engineered by DiscoveRx, as detailed below. The cell lines are designed to co-express both the ProLink/Enzyme Donor (PK)-tagged GPCR and the Enzyme […] (EA)-tagged Beta-Arrestin fusion proteins. Upon GPR120 receptor stimulation/activation, the EA-tagged β-Arrestin portion is translocated to the tagged receptor, where the two enzyme fragments are brought within close proximity. Under these conditions, these fragments can interact and form an active Beta-gal enzyme complex through Enzyme Fragment Complementation (EFC). This active Beta-gal complex can enzymatically hydrolyse the substrate to produce a detectable light signal; therefore, activation as a function of agonist concentration can be expressed as an EC50 value to determine relative compound activities. This in vitro assay therefore serves to assess compound agonist activity of the GPR120.
In Procedure β-arrestin A, the cell used were PathHunter CHO-K1 GPR120 β-Arrestin Cell Line, expressing the long form of human GPR120 (Genbank accession number NM_181745), with 3000 cells per well.
The selected CHO-K1 GPR120 β-Arrestin cells were cultured in Ham's F12 media supplemented with 10% fetal bovine serum (FBS), 1% Glutamine, 1×p/s, 800 μg/ml G418 and 300 μg/ml Hygromycin B (for selection). Cell stocks were maintained and grown in a sub-confluent state using standard cell culture procedures. The day before the experiment, the cells were harvested with non-enzymatic cell dissociation buffer and re-suspended in complete growth media at the desired concentration. A Corning 384-plate was then seeded with the proper number of cells in a volume of 25 μL, per well. The seeded plates were incubated overnight at 37° C.
On the day of the experiment, the Assay Buffer containing (a) HBSS with Ca^++ and Mg^++, (b) 20 mM HEPES, and (c) 0.1% BSA stabilizer (pH 7.4) was prepared. The growth medium was gently removed from the cell plates and 20 μL of Assay Buffer added to each well. The plate was then incubated at 37° C. for 60 mins. Test compounds were serially diluted in Assay Buffer to desired concentrations (more particularly, to one or more of the following μM concentrations: 25 μM, 12.5 μM, 6.25 μM, 3.125 μM, 1.562 μM, 0.781 μM, 0.391 μM, 0.195 μM, 0.098 μM, 0.049 μM, 0.024 μM, 0.012 μM). Five μl of compound dilution was then added to each well and the plate incubated at 37° C. for 90 mins. The detection reagents were prepared according to the manufacture's instruction. Twelve μL of the detection reagents were added to each well and the plate incubated at room temperature for 60 mins.
The plates were read on an EnVision instrument, using Protocol name: Luminescence, Plate type: 384 Costar, Measurement height: 3 mm, Measurement time: 1 s, Aperture: 384 Plate aperture. The % activity relative to the positive control was calculated using the following equation:
as §7, with “% Activity values” for “data”, “were plotted versus the concentration of test compound and” for “were”, “a” for “a variable”, “slope=1 (fixed value)” for “slope (<2)”

T2 sequence (Q5NUL3 1-377 isoform Q5NUL3-1): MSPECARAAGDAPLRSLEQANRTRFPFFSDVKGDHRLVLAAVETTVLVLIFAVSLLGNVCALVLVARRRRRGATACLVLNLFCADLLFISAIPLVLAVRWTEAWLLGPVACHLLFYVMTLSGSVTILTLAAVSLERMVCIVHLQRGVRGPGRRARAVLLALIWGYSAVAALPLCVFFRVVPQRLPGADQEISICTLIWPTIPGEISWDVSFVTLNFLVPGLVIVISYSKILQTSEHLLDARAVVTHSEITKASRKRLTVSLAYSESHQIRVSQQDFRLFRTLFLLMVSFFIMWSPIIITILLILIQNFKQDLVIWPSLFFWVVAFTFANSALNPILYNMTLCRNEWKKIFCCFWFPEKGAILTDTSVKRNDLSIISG
T2 sequence (P32121 whole entry partner): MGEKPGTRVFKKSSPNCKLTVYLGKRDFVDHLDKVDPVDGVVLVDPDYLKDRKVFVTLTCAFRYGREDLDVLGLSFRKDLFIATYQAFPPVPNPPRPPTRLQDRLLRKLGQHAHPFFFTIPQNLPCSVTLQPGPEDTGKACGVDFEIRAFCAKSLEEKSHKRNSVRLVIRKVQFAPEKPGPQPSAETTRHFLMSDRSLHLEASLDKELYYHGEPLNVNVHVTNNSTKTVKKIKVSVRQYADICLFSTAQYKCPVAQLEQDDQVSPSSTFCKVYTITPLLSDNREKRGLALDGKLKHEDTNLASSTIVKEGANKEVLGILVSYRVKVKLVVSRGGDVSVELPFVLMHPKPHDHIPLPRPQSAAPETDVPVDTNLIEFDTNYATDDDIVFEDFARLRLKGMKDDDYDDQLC

SMILES: CCc1ccc(-n2ccc(C(F)(F)F)c2COc2c(F)cc(CCC(=O)O)cc2F)cc1 [Compound 32, 3-(4-[[1-(4-ethylphenyl)-3-(trifluoromethyl)-1H-pyrrol-2-yl]methoxy]-3,5-difluorophenyl)propanoic acid]
EC50 [1]: 117 nM | EC50 [2]: 402 nM | EC50 [3]: 357 nM

SMILES: Cc1c(CCC(=O)O)ccc(OCc2c(Cl)ccn2-c2ccc(Cl)cc2)c1C [Compound 8, 3-(4-{[3-Chloro-1-(4-chlorophenyl)-1H-pyrrol-2-yl]methoxy}-2,3-dimethylphenyl)propanoic acid]
EC50 [1]: 173 nM | EC50 [2]: 528 nM | EC50 [3]: 1000 nM

SMILES: O=C(O)CCc1ccc(OCc2c(Br)ccn2-c2ccc(Cl)cc2)c(F)c1F [Compound 6, 3-(4-{[3-Bromo-1-(4-chlorophenyl)-1H-pyrrol-2-yl]methoxy}-2,3-difluorophenyl)propanoic acid]
EC50 [1]: 161 nM | EC50 [2]: 819 nM | EC50 [3]: 730 nM

SMILES: CCc1ccc(-n2ccc(C(F)(F)F)c2COc2ccc(CCC(=O)O)c(C)c2C)cc1 [Compound 36, 3-(4-[[1-(4-ethylphenyl)-3-(trifluoromethyl)-1H-pyrrol-2-yl]methoxy]-2,3-dimethylphenyl)propanoic acid]
EC50 [1]: 145 nM | EC50 [2]: 444 nM | EC50 [3]: 120 nM

SMILES: OCCCc1ccc(OCc2c(Br)ccn2-c2ccc(Cl)cc2)c(F)c1F [Compound 5, 3-(4-{[3-Bromo-1-(4-chlorophenyl)-1H-pyrrol-2-yl]methoxy}-2,3-difluorophenyl)propan-1-ol]
EC50 [1]: 368 nM | EC50 [2]: 435 nM | EC50 [3]: 130 nM

SMILES: OCCCc1ccc(OCc2c(C(F)(F)F)ccn2-c2ccc(Br)cc2)c(F)c1F [Compound 21, 3-(4-{[1-(4-Bromophenyl)-3-(trifluoromethyl)-1H-pyrrol-2-yl]methoxy}-2,3-difluorophenyl)propan-1-ol]
EC50 [1]: 282 nM | EC50 [2]: 709 nM | EC50 [3]: 87 nM

SMILES: Cc1ccc(-n2ccc(C(F)(F)F)c2COc2c(F)cc(CCC(=O)O)cc2F)cn1 [Compound 49, 3-(3,5-Difluoro-4-{[1-(6-methylpyridin-3-yl)-3-(trifluoromethyl)-1H-pyrrol-2-yl]methoxy}phenyl)propanoic acid]
EC50 [1]: 289 nM | EC50 [2]: 870 nM | EC50 [3]: 1240 nM

SMILES: COc1ccc(-n2ccc(C(F)(F)F)c2COc2ccc(CCC(=O)O)c(C)c2C)cc1 [Compound 24, 3-(4-{[1-(4-Methoxyphenyl)-3-(trifluoromethyl)-1H-pyrrol-2-yl]methoxy}-2,3-dimethylphenyl)propanoic acid]
EC50 [1]: 227 nM | EC50 [2]: 931 nM | EC50 [3]: 308 nM

SMILES: Cc1c(CCC(=O)O)ccc(OCc2cccn2-c2ccc(Br)cc2)c1C [Compound 3, 3-(4-{[1-(4-Bromophenyl)-1H-pyrrol-2-yl]methoxy}-2,3-dimethylphenyl)propanoic acid]
EC50 [1]: 164 nM | EC50 [2]: 1040 nM | EC50 [3]: 592 nM

Compounds with a lower EC50 [1], results first:

EC50 [1]: 50 nM | EC50 [2]: 432 nM | EC50 [3]: 98 nM
SMILES: Cc1ccc(-n2ccc(C(F)(F)F)c2COc2ccc(CCCO)c(F)c2F)cc1 [Compound 44, 3-(2,3-difluoro-4-[[1-(4-methylphenyl)-3-(trifluoromethyl)-1H-pyrrol-2-yl]methoxy]phenyl)propan-1-ol]

EC50 [1]: 84 nM | EC50 [2]: 810 nM | EC50 [3]: 293 nM
SMILES: Cc1ccc(-n2ccc(C(F)(F)F)c2COc2ccc(CCC(=O)O)c(F)c2F)cc1 [Compound 42, 3-(2,3-difluoro-4-[[1-(4-methylphenyl)-3-(trifluoromethyl)-1H-pyrrol-2-yl]methoxy]phenyl)propanoic acid]

EC50 [1]: 30 nM | EC50 [2]: 98 nM | EC50 [3]: 98 nM
SMILES: Cc1ccc(-n2ccc(C(F)(F)F)c2COc2c(F)cc(CCCO)cc2F)cn1 [Compound 48, 3-(3,5-difluoro-4-((1-(6-methylpyridin-3-yl)-3-(trifluoromethyl)-1H-pyrrol-2-yl)methoxy)phenyl)propan-1-ol trifluoroacetic acid]

EC50 [1]: 54 nM | EC50 [2]: 218 nM | EC50 [3]: 46 nM
SMILES: COc1ccc(-n2ccc(C(F)(F)F)c2COc2ccc(CCCO)c(F)c2F)cc1 [Compound 27, 3-(2,3-Difluoro-4-{[1-(4-methoxyphenyl)-3-(trifluoromethyl)-1H-pyrrol-2-yl]methoxy}phenyl)propan-1-ol]
